Laboratory results reported in patent USRE38132E1, “Phenylpyrrolidines, phenylimidazolidines,3-phenyl-1,3-oxizolidines and 3-phenyl-1,3-thiazolidines and their use in the treatment of inflammatory disease” (Boehringer Ingelheim Pharmaceuticals, Inc., priority 1997, dated 2003).
Like-named read-outs stand apart in the source and are kept apart here.

Tests used:
[1] = test system: cell bound form of LFA-1 (CD18, CD11a) with ICAM-1, SKW3 cells; assay: Inhibition of SKW3 cell binding to ICAM-1 (PMA-stimulated); format: cell-based, human; settings: Homo sapiens, read-out: Assay to Detect SKW3 Cells Binding to ICAM IC50
Text: (§1) Assay to Determine Inhibition of SKW3 cell binding to ICAM-1 vs. Binding to Fibronectin
(§2) This assay is used to test the selective ability of a test compound to antagonize the interaction of a cell bound form of LFA-1 with ICAM-1. The assay uses a human T cell line, SKW3 cells which express CD18, CD11a and other integrins not related to CD18, CD11a and which can be “activated” by phorbol esters. Phorbol esters enhance the affinity of CD18, CD11a for ICAM-1.
(§3) This same lymphocyte line, SKW3, also adheres to fibronectin in the presence of phorbol esters. This adhesion is mediated by membrane proteins independent of the LFA-1/ICAM-1 interaction. The SKW3 cells express another integrin, VLA4, which is the receptor for fibronectin. Therefore, as a preliminary indication of the selectivity of a test compounds to interfere with Leukointegrin/CAM interactions but not other integrin-ligand binding events, a compound can be tested for its ability to antagonize cell bound fibronectin receptor in its interaction with purified fibronectin. Compounds that inhibit this fibronectin adhesion are not specific antagonists of the CD18, CD11a/ICAM-1 binding.
(§4) Description of Assay Protocol:
(§5) Ninety-six well plates are coated with either sICAM-1(40 μg/mL) or fibronectin (100 μg/mL) in Diluting buffer for 1 h at room temperature. Added to the wells are 100 μL of the appropriately diluted test compound or 100 μL of RPMI with 15% fetal bovine serum as a control. SKW3 cells, which express CD18, CD11a and VLA4 (Dustin, M.; et al., J. Exp. Med. 1987, 165, 672-692) are washed and suspended to a concentration of 10^6 cells/mL in RPMI with 15% fetal bovine serum. Immediately before adding the cells to the wells, cells are stimulated with the phorbol ester 12-myristate 13-acetate (PMA) for a final concentration of […]. 100 μL of cells are then added to the wells resulting in a final concentration of […]. The plates are incubated for 2 h at 37° C. Unbound or loosely bound cells are gently washed away with RPMI.
(§6) Data are reported as the concentration or concentration range (in μM) at which 50% of binding is inhibited.

[2] = target: T1, interaction of ICAM-1 with the Leukointegrin CD18/CD11a (LFA-1) (Homo sapiens, UniProt P05107+P20701); assay: Assay to determine inhibition of LFA-1 binding to ICAM-1 (immunopurified LFA-1 on plate-bound sICAM-1, ELISA readout)
T1 construct: endogenous in cells; sICAM-1: made in house, secreted from transfected CHO DUX cells

[3] = test system: LFA-1 dependent aggregation of JY cells; assay: JY cell homotypic aggregation assay (PMA-stimulated); format: cell-based, human; settings: Homo sapiens
Text: This aggregation can be enhanced by the addition of phorbol esters. […] Thus, the extent of LFA-1-dependent binding may be determined by assessing the extent of spontaneous or phorbol ester-dependent aggregate formation.
An agent which interferes with LFA-1 -dependent aggregation can be identified through the use of an assay capable of determining whether the agent interferes with either spontaneous, or phorbol ester-dependent aggregation of Epstein-Barr virus transformed cells. It is preferable to employ cells of the JY cell line (Terhost, L; et aL, Proc. Natl. Acad. Sci. USA, 1976, 73, 910) for the homotypic aggregation assay. This assay, capable of measuring LFA-1 dependent aggregation, may be employed to identify agents which act as antagonists to the LFA-1 dependent aggregation. Such agents may act by impairing the ability of either LFA-1 or ICAM-1 to mediate aggregation. Thus, agents may be examined to directly determine if they are antagonists of LFA-1 aggregation.
as §4
JY cells are cultured in RPMI 1640 culture medium supplemented with 10% fetal calf serum and 50 μg/mL gentamycin. The cells are cultured at 37° C. in an atmosphere of 5% CO2 at a relative humidity of 95%. JY cells used in this assay are washed two times with RPMI 1640 medium containing 5 mM HEPES buffer and resuspended to a concentration of 2·10^6 cells/mL. Added to flat-bottomed, 96-well microtiter plates are 50 μL of test compound diluted in complete medium, 50 μL of complete medium with or without purified monoclonal antibodies (negative and positive controls for inhibition, respectively), 50 μL of complete medium containing 200 ng/mL of the phorbol ester phorbol myristate acetate (PMA) and 100 μL of cells at a concentration of 2·10^6 cells/mL in complete medium. This yields a final concentration of […] PMA and 2·10^5 cells/well. Cells are allowed to settle spontaneously, and the degree of aggregation is scored at various time points. […] This procedure has been described by Rothlein, R. R.; et al., J. Exp. Med. 1986, 163, 1132-1149. This paper also reported that antibody to LFA-1 is capable of inhibiting the formation of aggregates.
as §6

[4] = test system: cell bound fibronectin receptor (VLA4) with fibronectin, SKW3 cells; assay: Inhibition of SKW3 cell binding to fibronectin (selectivity counter-assay); format: cell-based, human; settings: for IC50: Homo sapiens, SKW3, values marked c: no inhibition observed up to highest dose, read-out: Assay to Detect SKW3 Cells Binding to FIBRONECTIN IC50
Text: as §1, §2, §3, §4, §5, §6

[5] = No inh = no inhibition observed up to highest dose, exact quantification not always possible due to intrinsic toxicity
[6] = SKW3, values marked c: no inhibition observed up to highest dose
[7] = values marked e approximated from incomplete dose-response curve
[8] = values marked c: no inhibition observed up to highest dose

T1 sequence (P20701 26-1170): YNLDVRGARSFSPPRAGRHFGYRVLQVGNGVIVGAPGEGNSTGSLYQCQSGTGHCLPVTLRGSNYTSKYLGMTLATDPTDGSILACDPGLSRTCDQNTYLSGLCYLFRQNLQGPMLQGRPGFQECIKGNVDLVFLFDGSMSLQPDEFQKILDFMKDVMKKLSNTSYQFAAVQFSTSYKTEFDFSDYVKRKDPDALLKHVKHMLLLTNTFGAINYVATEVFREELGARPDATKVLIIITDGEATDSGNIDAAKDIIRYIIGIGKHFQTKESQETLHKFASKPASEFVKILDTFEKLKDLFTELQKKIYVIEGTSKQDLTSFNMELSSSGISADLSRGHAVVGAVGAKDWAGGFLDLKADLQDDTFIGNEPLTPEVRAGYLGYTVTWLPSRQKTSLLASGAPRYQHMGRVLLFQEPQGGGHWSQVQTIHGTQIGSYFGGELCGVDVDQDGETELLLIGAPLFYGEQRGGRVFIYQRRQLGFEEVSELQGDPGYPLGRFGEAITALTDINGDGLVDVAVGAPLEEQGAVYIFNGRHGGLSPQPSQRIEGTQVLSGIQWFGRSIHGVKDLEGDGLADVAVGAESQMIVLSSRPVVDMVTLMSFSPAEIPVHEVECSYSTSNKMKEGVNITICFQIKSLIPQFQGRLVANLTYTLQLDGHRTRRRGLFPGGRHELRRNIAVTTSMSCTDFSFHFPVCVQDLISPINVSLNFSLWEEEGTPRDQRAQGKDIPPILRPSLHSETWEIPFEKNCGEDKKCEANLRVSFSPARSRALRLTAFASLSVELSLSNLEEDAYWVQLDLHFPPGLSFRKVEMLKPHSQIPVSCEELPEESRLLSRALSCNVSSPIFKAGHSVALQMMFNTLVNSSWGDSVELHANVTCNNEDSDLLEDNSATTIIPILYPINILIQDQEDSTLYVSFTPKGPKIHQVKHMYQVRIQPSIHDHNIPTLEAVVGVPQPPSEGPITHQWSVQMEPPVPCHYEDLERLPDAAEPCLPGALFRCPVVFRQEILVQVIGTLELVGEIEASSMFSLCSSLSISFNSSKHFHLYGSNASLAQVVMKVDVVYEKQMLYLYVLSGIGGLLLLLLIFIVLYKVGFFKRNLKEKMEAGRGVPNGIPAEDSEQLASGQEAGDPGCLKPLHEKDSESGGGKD
T1 sequence (P05107 23-769): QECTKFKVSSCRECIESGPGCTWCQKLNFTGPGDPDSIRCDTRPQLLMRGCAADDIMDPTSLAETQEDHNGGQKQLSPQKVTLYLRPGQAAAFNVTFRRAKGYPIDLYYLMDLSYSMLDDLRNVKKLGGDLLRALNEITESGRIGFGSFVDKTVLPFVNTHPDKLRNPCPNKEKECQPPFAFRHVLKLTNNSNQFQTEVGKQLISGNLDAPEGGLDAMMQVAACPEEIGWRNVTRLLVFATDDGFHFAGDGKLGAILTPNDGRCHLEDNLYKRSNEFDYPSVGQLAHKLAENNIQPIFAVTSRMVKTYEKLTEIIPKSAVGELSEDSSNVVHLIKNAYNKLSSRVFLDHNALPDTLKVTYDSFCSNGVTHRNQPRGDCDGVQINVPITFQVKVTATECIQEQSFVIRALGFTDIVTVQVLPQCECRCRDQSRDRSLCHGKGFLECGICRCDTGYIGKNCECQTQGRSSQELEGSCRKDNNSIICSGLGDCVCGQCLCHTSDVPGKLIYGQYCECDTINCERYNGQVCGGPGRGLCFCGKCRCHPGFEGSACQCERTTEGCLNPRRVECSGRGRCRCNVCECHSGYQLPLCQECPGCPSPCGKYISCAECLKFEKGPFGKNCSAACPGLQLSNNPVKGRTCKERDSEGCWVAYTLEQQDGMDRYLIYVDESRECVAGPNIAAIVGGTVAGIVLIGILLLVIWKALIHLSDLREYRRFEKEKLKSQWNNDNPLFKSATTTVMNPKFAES

Structure (SMILES)	Cellular Toxicity Assay MTT LD50 (SKW3 cells) [µM]	IC50 ([1]; SKW3) [nM]	Kd [2] [nM]	IC50 [3] [nM]	Assay to Detect SKW3 Cells Binding to FIBRONECTIN IC50 [4, 5]	IC50 [1, 6] [nM]	Kd [2, 7] [nM]	IC50 [4] [nM]	Assay to Detect SKW3 Cells Binding to FIBRONECTIN IC50 [4, 8]
C[C@@]1(Cc2ccc(Br)cc2)C(=O)N(c2cc(Cl)cc(Cl)c2)C(=O)N1CCCCCNC(=N)N [Example 264]	12 to 24	2000 to 5000	120	400	No inh^c	–	–	–	–
CN1C(=O)N(c2cc(Cl)cc(Cl)c2)C(=O)[C@@H]1Cc1ccccc1 [Example 87]	>500	–	–	50000	–	50000 to 100000	2000	> 100000	–
C[C@]1(Cc2ccc(Br)cc2)NC(=O)N(c2cc(C(F)(F)F)cc(C(F)(F)F)c2)C1=O [Example 35]	38 to 46	–	–	800	–	5000 to 10000	100	–	No inh^c
C[C@@]1(Cc2ccc(Br)cc2)C(=O)N(c2cc(Cl)cc(Cl)c2)C(=O)N1C[C@@H](O)c1ccccc1 [Example 133]	>400	–	–	400	–	5000 to 10000	150	–	No inh^c
CC(C)N1C(=O)N(c2cc(Cl)cc(Cl)c2)C(=O)C1Cc1ccc(Br)cc1 (stereo not drawn) [Example 34]	200 to 400	–	–	1800	–	6000	130	–	No inh^c
Cc1cccc(C)c1CC1(C)C(=O)N(c2cc(Cl)cc(Cl)c2)C(=O)N1C (stereo not drawn) [Example 163]	200 to 400	–	–	2400	–	9000 to 19000	160	> 75000	–
C[C@]1(Cc2cc(Br)cc(Br)c2)NC(=O)N(c2cc(Cl)cc(Cl)c2)C1=O [Example 40]	50 to 100	–	–	25000	–	50000 to 100000	480	50000 to 100000	–
CC(C)N1C(=O)N(c2cc(Cl)cc(Cl)c2)C(=O)C1(C)Cc1ccc(Br)cc1 (stereo not drawn) [Example 141]	300	–	–	100	–	15000	220	> 15000	–
C[C@]1(Cc2ccc(Br)cc2)NC(=O)N(c2cc(Cl)c(Cl)c(Cl)c2)C1=O [Example 43]	25 to 50	–	–	1800	–	3000 to 6000	170	–	No inh^c
CN1C(=O)N(c2cc(Cl)cc(Cl)c2)C(=O)[C@@]1(C)Cc1ccc(-c2cccnc2)cc1 [Example 188]	56 to 112	–	–	30	–	300 to 1000	40	–	No inh^c
CN1C(=O)N(c2cc(Cl)cc(Cl)c2)C(=O)[C@@]1(C)Cc1ccc(C#N)cc1 [Example 127]	125 to 250	–	–	100	–	800 to 1600	50	–	No inh^c
C[C@@]1(Cc2ccc(Br)cc2)C(=O)N(c2cc(Cl)cc(Cl)c2)C(=O)N1CCC[N+](C)(C)C [Example 254]	100 to 200	1000 to 2000	80	400	–	–	–	–	–
CC(=O)N1C(=O)N(c2cc(Cl)cc(Cl)c2)C(=O)[C@@]1(C)Cc1ccc(C#N)cc1 [Example 128]	125 to 250	–	–	100	–	1500	160	–	No inh^c
CN1C(=O)N(c2cc(Cl)c(F)c(Cl)c2)C(=O)[C@@]1(C)Cc1ccc(Br)cc1 [Example 124]	100 to 200	–	–	100	–	1500	30	–	No inh^c
CN1CCC(N2C(=O)N(c3cc(Cl)cc(Cl)c3)C(=O)[C@@]2(C)Cc2ccc(Br)cc2)CC1 [Example 37]	<13	–	–	1600	–	5000 to 10000	160	> 19000	–
C[C@@]1(Cc2ccc(Br)cc2)C(=O)N(c2cc(Cl)cc(Cl)c2)C(=O)N1C1CCN(CC(=O)O)CC1 [Example 237]	50 to 100	1000 to 2000	130	100	No inh^c	–	–	–	–
C[C@@]1(Cc2ccc(Br)cc2)C(=O)N(c2cc(Cl)cc(Cl)c2)C(=O)N1CCCCNC(=N)N [Example 263]	20 to 40	800 to 1600	90	800	No inh^c	–	–	–	–
C[C@@]1(Cc2ccc(Br)cc2)C(=O)N(c2cc(Cl)cc(Cl)c2)C(=O)N1Cc1ccccc1O [Example 247]	40 to 80	1500 to 3000	230	2300	No inh^c	–	–	–	–
Cc1ccc(C[C@@]2(C)NC(=O)N(c3cc(Cl)cc(Cl)c3)C2=O)cc1 [Example 119]	>400	–	–	50	–	< 3000	–	–	No inh^c
CC1(Cc2ccc(Br)cc2)OC(=O)N(c2cc(Cl)cc(Cl)c2)C1=O (stereo not drawn) [Example 180]	200 to 400	–	–	1300	–	1500 to 3000	190	–	No inh^c
C[C@@]1(Cc2ccc(Br)cc2)C(=O)N(c2cc(Cl)cc(Cl)c2)C(=O)N1CCCCC[N+](C)(C)C [Example 255]	100 to 200	1000	140	200	–	–	–	–	–
C[C@@]1(Cc2ccc(Br)cc2)C(=O)N(c2cc(Cl)cc(Cl)c2)C(=O)N1CCCC[N+](C)(C)C [Example 253]	100 to 200	1000 to 2000	50	200	–	–	–	–	–
[2H]C([2H])([2H])N1C(=O)N(c2cc(Cl)cc(Cl)c2)C(=O)[C@@]1(C)Cc1ccc(Br)cc1 [Example 109]	100 to 200	–	–	400	–	3000 to 6000	–	–	No inh^c
C[C@@]1(Cc2ccc(Br)cc2)C(=O)N(c2cc(Cl)cc(Cl)c2)C(=O)N1C(=O)C1CCCN1 (stereo partly drawn) [Example 234]	100 to 200	5000 to 10000	–	1600	No inh^c	–	–	–	–
